Source: publication PMC12310023 (PLOS Neglected Tropical Diseases, 2025)
Like-named read-outs stand apart in the source and are kept apart here.

Assays:
CYP2D6 [1] = molecular target: T1, CYP2D6 (Homo sapiens, UniProt P10635); assay: in vitro; details: recombinant CYP2D6 supersomes
[2] = Plasma protein binding, equilibrium dialysis; details: mouse
CYP2C19 = CYP2C19 (Homo sapiens, UniProt P33261); assay: CYP reaction phenotyping, recombinant supersomes
5-HT2B = molecular target: T2, 5-HT2B (Homo sapiens, UniProt P41595); assay: Cerep cellular and nuclear receptor functional assay; format: cell-based
T2 construct: Cerep (Eurofins, France)

A3 [3] = molecular target: T3, A3 (Homo sapiens, UniProt P0DMS8); assay: Cerep binding assay; set-up: Cerep (Eurofins, France); details: agonist radioligand, mean, read-out: % inhibition of control specific binding
T3 sequence (P0DMS8 1-318): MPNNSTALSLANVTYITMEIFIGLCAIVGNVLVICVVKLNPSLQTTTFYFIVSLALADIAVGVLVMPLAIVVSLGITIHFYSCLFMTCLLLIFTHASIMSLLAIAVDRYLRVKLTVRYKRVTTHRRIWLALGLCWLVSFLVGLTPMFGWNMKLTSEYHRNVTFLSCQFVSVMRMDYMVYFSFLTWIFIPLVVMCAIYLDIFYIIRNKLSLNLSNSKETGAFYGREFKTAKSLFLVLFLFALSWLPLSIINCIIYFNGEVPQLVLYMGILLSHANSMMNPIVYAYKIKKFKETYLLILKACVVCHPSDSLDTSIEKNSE

CYP2D6 [4] = molecular target: T1, CYP2D6; assay: CYP reaction phenotyping, recombinant supersomes
CYP1A2 [5] = molecular target: T4, CYP1A2 (Homo sapiens, UniProt P05177); assay: biochemical
T4 sequence (P05177 1-516): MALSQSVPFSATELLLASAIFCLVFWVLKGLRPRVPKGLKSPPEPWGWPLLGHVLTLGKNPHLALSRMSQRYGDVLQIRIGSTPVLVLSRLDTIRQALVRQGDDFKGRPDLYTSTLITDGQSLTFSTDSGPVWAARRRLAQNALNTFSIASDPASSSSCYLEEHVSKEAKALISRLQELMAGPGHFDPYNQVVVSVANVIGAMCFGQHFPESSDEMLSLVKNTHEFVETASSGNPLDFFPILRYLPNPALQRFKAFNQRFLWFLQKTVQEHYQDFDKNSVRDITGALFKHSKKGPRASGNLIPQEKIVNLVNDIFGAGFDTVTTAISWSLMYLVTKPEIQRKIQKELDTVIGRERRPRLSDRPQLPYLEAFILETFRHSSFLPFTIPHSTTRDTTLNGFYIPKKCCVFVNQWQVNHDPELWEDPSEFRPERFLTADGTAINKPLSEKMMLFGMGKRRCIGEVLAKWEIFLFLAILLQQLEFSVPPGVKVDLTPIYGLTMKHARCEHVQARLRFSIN

C. parvum CDPK1 = C. parvum CDPK1 (Cryptosporidium parvum, UniProt A3FQ16); assay: CpCDPK1 enzyme inhibition; format: biochemical
Source text: […]. […] All other methods are specified in S1 File.

CYP3A12 = assay: CYP Induction Assay in dog hepatocytes; details: 30 and 100 μM, 48 h
CYP3A4 [6] = molecular target: T5, CYP3A4 (Homo sapiens, UniProt P08684); assay: in vitro; details: recombinant CYP3A4 supersomes
A3 [7] = molecular target: T3, A3; assay: Cerep cellular and nuclear receptor functional assay
[8] = Liver microsome stability; details: mouse, pooled liver microsomes
[9] = HCT-8 host cell count (Calibr); details: human
[10] = Liver microsome stability; details: rat, pooled liver microsomes
NLuc C. parvum (Calibr) = assay: Calibr panel, UA Nanoluc C. parvum count; format: cell-based; details: Cryptosporidium parvum
Salmonella bacteria = assay: microAmes (μAmes) test
CYP1A2 [11] = molecular target: T4, CYP1A2; assay: in vitro; details: recombinant CYP1A2 supersomes
Hepatocyte stability [12] = details: dog
[13] = Plasma protein binding, equilibrium dialysis; details: bovine
CYP1A1 = assay: CYP Induction Assay in dog hepatocytes; details: 30 and 100 μM, 48 h
Hepatocyte stability [14] = details: rat
Hepatocyte stability [15] = details: human
CYP3A4 [16] = molecular target: T5, CYP3A4; assay: CYP reaction phenotyping, recombinant supersomes
[17] = Stability of M2 hemiaminal in buffer; format: physicochemical; details: pH 6.8 phosphate buffer, ambient temperature
[18] = liver microsomes and primary hepatocytes

T5 sequence (P08684 whole entry): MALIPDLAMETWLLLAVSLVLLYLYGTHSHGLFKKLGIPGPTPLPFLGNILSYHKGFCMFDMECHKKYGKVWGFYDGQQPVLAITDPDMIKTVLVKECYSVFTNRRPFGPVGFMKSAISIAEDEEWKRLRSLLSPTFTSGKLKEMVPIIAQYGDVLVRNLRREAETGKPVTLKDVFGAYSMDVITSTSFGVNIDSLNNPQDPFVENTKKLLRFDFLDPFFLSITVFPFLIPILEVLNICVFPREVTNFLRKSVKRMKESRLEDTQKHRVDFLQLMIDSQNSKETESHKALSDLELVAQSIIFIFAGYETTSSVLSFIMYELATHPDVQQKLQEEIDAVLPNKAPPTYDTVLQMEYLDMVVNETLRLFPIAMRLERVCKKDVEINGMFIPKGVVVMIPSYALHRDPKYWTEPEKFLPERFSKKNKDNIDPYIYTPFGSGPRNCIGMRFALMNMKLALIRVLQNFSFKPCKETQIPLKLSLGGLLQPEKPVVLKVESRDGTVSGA
T1 sequence (P10635 whole entry): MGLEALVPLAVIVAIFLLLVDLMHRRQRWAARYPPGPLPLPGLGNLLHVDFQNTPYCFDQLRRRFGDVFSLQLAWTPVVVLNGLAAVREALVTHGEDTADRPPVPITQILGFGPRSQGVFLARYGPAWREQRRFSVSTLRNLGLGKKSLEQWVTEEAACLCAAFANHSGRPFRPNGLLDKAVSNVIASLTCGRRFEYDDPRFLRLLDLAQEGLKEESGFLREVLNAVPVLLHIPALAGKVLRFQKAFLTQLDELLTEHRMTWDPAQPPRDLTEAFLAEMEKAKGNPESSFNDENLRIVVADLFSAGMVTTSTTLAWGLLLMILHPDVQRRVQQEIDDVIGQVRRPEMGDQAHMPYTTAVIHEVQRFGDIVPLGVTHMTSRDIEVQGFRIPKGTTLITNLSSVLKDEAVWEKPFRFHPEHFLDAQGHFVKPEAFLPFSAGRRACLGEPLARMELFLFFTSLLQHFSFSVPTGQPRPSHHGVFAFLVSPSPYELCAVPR
Sequence of C. parvum CDPK1 (A3FQ16 1-538): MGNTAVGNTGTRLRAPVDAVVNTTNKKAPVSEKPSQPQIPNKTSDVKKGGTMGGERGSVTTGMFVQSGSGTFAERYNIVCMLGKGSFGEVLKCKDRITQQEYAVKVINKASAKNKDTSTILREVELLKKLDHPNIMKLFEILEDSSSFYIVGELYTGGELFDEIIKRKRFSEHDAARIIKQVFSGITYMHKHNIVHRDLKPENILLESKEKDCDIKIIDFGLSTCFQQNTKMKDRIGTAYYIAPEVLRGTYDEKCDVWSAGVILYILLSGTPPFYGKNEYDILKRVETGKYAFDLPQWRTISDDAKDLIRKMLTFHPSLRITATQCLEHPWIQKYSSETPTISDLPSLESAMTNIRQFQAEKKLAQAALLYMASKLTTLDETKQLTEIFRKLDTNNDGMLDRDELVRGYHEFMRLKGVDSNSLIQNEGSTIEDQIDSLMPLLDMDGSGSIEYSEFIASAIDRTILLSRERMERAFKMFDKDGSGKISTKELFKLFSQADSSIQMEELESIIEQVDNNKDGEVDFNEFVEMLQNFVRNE
T2 sequence (P41595 whole entry): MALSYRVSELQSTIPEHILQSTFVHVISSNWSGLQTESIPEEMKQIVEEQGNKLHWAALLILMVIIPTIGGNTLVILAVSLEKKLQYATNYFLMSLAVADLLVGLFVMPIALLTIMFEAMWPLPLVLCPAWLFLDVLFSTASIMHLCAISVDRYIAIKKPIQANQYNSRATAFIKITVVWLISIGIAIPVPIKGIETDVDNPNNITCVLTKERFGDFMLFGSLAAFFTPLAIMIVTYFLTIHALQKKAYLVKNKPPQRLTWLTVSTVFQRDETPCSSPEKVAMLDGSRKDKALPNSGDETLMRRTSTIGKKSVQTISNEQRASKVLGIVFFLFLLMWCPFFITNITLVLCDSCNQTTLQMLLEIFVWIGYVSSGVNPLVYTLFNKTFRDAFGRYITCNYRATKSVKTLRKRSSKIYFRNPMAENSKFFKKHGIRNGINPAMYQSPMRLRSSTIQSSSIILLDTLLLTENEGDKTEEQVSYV
Sequence of CYP2C19 (P33261 whole entry): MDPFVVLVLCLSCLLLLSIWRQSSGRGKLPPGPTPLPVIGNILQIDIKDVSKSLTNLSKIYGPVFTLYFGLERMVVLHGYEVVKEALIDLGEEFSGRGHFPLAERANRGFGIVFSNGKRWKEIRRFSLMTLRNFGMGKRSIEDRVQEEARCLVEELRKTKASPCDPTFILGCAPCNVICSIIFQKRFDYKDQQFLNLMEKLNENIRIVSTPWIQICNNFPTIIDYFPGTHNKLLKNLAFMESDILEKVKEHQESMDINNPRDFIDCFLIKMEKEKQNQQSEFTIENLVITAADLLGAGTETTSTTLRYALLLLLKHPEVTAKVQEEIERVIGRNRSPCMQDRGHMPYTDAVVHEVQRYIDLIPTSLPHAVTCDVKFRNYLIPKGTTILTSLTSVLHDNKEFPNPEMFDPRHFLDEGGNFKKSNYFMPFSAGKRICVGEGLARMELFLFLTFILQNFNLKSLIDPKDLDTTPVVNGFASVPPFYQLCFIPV

SMILES: CC1(C)Cn2nc(-c3ccc4cc(OC5CC5)ccc4c3)c(C(N)=O)c2NC1O (centres unmarked) [M2]
- CLint scaled (CYP2D6 [1]): < 0.183 mL/min/kg
- half-life (CYP2D6 [1]): > 4 h
- fraction unbound [2]: 0.04
- % contribution (CYP2C19): 0.0%
- CLint (CYP2C19): <0.029 µL/min/pmol
- agonist effect (5-HT2B): no effect up to 100 μM
- IC50 (5-HT2B; read-out: IC50, antagonist effect): 20000 nM
- inhibition at 10 µM (A3 [3]): 72.6%
- % contribution (CYP2D6 [4]): 0.0%
- CLint (CYP2D6 [4]): <0.029 µL/min/pmol
- IC50 (CYP1A2 [5]): > 40000 nM
- IC50 (C. parvum CDPK1): 92.5 nM
- fold reduction in potency compared to BKI-1708 (C. parvum CDPK1): 132 fold
- induction of CYP3A12 (CYP3A12): not found to be inducers
- CLint scaled (CYP3A4 [6]): 5.02 mL/min/kg
- half-life (CYP3A4 [6]): 0.817 h
- EC50 (A3 [7]): > 10000 nM
- IC50 (A3 [7]): 43000 nM
- CLint scaled [8]: 75 mL/min/kg
- half-life [8]: 1.97 h
- microsomal CLint [8]: 23.6 µL/min/mg
- CC50 ([9]; CC50, HCT-8 cells infected with BGF Cp, Replicate 1): > 25000 nM
- CC50 ([9]; CC50, HCT-8 cells infected with BGF Cp, Replicate 2): > 25000 nM
- CC50 ([9]; CC50, HCT-8 cells infected with Ch, Replicate 1): > 25000 nM
- CC50 ([9]; CC50, HCT-8 cells infected with Ch, Replicate 2): > 25000 nM
- CC50 ([9]; CC50, HCT-8 cells infected with UA Nluc Cp, Replicate 1): > 25000 nM
- CC50 ([9]; CC50, HCT-8 cells infected with UA Nluc Cp, Replicate 2): > 25000 nM
- CLint scaled [10]: < 41.7 mL/min/kg
- half-life [10]: > 2 h
- microsomal CLint [10]: < 23.1 µL/min/mg
- EC50 (NLuc C. parvum (Calibr); Replicate 1, read-out: UA Nanoluc C. parvum Count EC50): 468 nM
- EC90 (NLuc C. parvum (Calibr); Replicate 1, read-out: UA Nanoluc C. parvum Count EC90): 1460 nM
- EC50 (NLuc C. parvum (Calibr); Replicate 2, read-out: UA Nanoluc C. parvum Count EC50): 212 nM
- EC90 (NLuc C. parvum (Calibr); Replicate 2, read-out: UA Nanoluc C. parvum Count EC90): 1010 nM
- EC50 (NLuc C. parvum (Calibr); read-out: EC50): 340 nM
- EC90 (NLuc C. parvum (Calibr); read-out: EC90): 1240 nM
- μAmes test result (Salmonella bacteria): negative
- CLint scaled (CYP1A2 [11]): 2.78 mL/min/kg
- half-life (CYP1A2 [11]): 1 h
- LM:hepatocyte CLint_scaled ratio (Hepatocyte stability [12]; [18]): <2.5
- CLint scaled (Hepatocyte stability [12]; primary hepatocytes): 13.3 mL/min/kg
- half-life (Hepatocyte stability [12]; primary hepatocytes): 6.85 h
- hepatocyte CLint (Hepatocyte stability [12]; primary hepatocytes): 3.4 µL/min/1e6 cells
- fraction unbound [13]: 0.05
- induction of CYP1A1 (CYP1A1): strong inducers
- LM:hepatocyte CLint_scaled ratio (Hepatocyte stability [14]; [18]): <0.7
- CLint scaled (Hepatocyte stability [14]; primary hepatocytes): 63.3 mL/min/kg
- half-life (Hepatocyte stability [14]; primary hepatocytes): 1.75 h
- hepatocyte CLint (Hepatocyte stability [14]; primary hepatocytes): 13.2 µL/min/1e6 cells
- LM:hepatocyte CLint_scaled ratio (Hepatocyte stability [15]; [18]): <2.5
- CLint scaled (Hepatocyte stability [15]; primary hepatocytes): 10 mL/min/kg
- half-life (Hepatocyte stability [15]; primary hepatocytes): 6.27 h
- hepatocyte CLint (Hepatocyte stability [15]; primary hepatocytes): 3.7 µL/min/1e6 cells
- % contribution (CYP3A4 [16]): 47.9%
- CLint (CYP3A4 [16]): 0.141 µL/min/pmol
- time hemiaminal stable [17]: up to 24 h
